# Test results from the SangsterLogP compilation.
# Experiment: method code SF-AS, from DOI: 10.1002/ardp.19893220504, PMID: 2569302
# Conditions: pH 7.4
row,SMILES,logD
1,COc1ccc2c(=O)c(C)c(-c3ccccc3)oc2c1CN1CCCCC1,2.63
2,CCN(CC)Cc1c(OC)ccc2c(=O)c(C)c(-c3ccc([N+](=O)[O-])cc3)oc12,1.7
3,COc1ccc2c(=O)c(C)c(-c3ccc(F)cc3)oc2c1CN1CCCC1,2.13
4,CCN(CC)Cc1c(OC)ccc2c(=O)c(C)c(-c3ccc(F)cc3)oc12,1.99
5,COc1ccc2c(=O)c(C)c(-c3ccc([N+](=O)[O-])cc3)oc2c1CN(C)C,1.73
6,CCN(CC)Cc1c(OC)ccc2c(=O)c(C)c(-c3ccccc3)oc12,1.99
7,CCN(CC)Cc1c(OC)ccc2c(=O)c(C)c(-c3ccc(Cl)cc3)oc12,2.66
8,CCN(CC)Cc1c(OC)ccc2c(=O)c(C)c(-c3ccc(C)cc3)oc12,2.46
9,COc1ccc2c(=O)c(C)c(-c3ccc([N+](=O)[O-])cc3)oc2c1CN1CCCC1,1.83
10,COc1ccc2c(=O)c(C)c(-c3ccc(F)cc3)oc2c1CN(C)C,1.97
11,COc1ccc2c(=O)c(C)c(-c3ccc(F)cc3)oc2c1CN1CCOCC1,3.26
12,COc1ccc2c(=O)c(C)c(-c3ccc(Cl)cc3)oc2c1CN1CCCCC1,3.46
13,COc1ccc2c(=O)c(C)c(-c3ccc(Cl)cc3)oc2c1CN(C)C,2.62
14,COc1ccc2c(=O)c(C)c(-c3ccc(Cl)cc3)oc2c1CN1CCCC1,2.75
15,COc1ccc2c(=O)c(C)c(-c3ccccc3)oc2c1CN1CCOCC1,3.25
16,COc1ccc2c(=O)c(C)c(-c3ccc([N+](=O)[O-])cc3)oc2c1CN1CCOCC1,3.02
17,COc1ccc2c(=O)c(C)c(-c3ccc([N+](=O)[O-])cc3)oc2c1CN1CCCCC1,2.53
18,COc1ccc2c(=O)c(C)c(-c3ccc(C)cc3)oc2c1CN(C)C,2.41
19,COc1ccc2c(=O)c(C)c(-c3ccc(C)cc3)oc2c1CN1CCCCC1,3.13
20,COc1ccc2c(=O)c(C)c(-c3ccc(F)cc3)oc2c1CN1CCCCC1,2.71
21,COc1ccc2c(=O)c(C)c(-c3ccc(C)cc3)oc2c1CN1CCOCC1,3.71
22,COc1ccc2c(=O)c(C)c(-c3ccc(C)cc3)oc2c1CN1CCCC1,2.5
23,COc1ccc2c(=O)c(C)c(-c3ccc(Cl)cc3)oc2c1CN1CCOCC1,3.94
24,COc1ccc2c(=O)c(C)c(-c3ccccc3)oc2c1CN(C)C,1.93
